Laboratory results taken from patent US9440966B2, “Compounds for treatment of metabolic syndrome” (SJT MOLECULAR RESEARCH, S.L., priority 2011, dated 2016).
Entries after “also recorded” stand apart in the source; their conditions may differ. Structures can show the parent of a compound that is named as a salt.

Legend:
normoglycemic rats [1] = experiment: Oral glucose tolerance test in normoglycemic rats (Examples 36, 37); format: in vivo, Male Wistar rats; conditions: 10 mg/kg orally, single dose per day
Description: (§1) Male Wistar rats (200-300 g) were utilized provided by Mato Grosso do Sul's Federal University's Biotherium. Until the experiments were carried out, the animals have had free access to feed and water. The room temperature was kept at 22±2° C. with controlled humidity (60-80%) and the light/dark cycle was of 12 hours.
The glucose tolerance test was evaluated as described by Al-Awaki et al (6).
Rats were randomly divided into […] groups of four animals that were control group that received only a solution of saline, compound 23b group (10 mg/kg), compound 21a group (10 mg/kg) and metformin 300 mg/kg group. Respective treatments were made orally and daily for five days.
(§2) On day 1, 3, and 5, different groups of rats were fasted overnight (at least 12 h) prior to the test, but with given water ad libitum. The oral glucose tolerance test was carried out by administering of a glucose solution (2 g/kg body weight) according to Al-Awadi et al (6). Glycemia was determined in blood samples collected from the tail vein at −30 minutes (just before the administration of the oral extract) time 0 (prior to the glucose overload) and at 60 minutes after the glucose overload. Serum glucose concentrations were measured by the glucose oxidase method (7) using commercial kit (Accuchek-performa (Roche)) according to the manufacture's instructions.
as §1, with “hours. All procedures were submitted to the Animal Experimentation Ethics Committee.” for “hours.”
The compounds 21b, 23a and 23d were diluted firstly in 20 μl of ethanol and after in 980 μl de saline. Compounds 21e, 23e and 26b were dissolved in sterile saline and were administered by oral gavage to rats based in the weight, for example 200 g received 200 μL.
54 rats were randomly divided into […] groups of five-eight animals that were control group (n=8) that received only a solution of vehicle, compound 21b group (n=5) (10 mg/kg), compound 21e group (n=5) (10 mg/kg), compound 23e group (n=5) (10 mg/kg), compound 23a group (n=5) (10 mg/kg), compound 23d group (n=5) (10 mg/kg), compound 26b group (n=5) (10 mg/kg) and metformin (n=6) 300 mg/kg group. Respective treatments were made orally and daily for five days.
as §2, with “manufactures's” for “manufacture's”

[2] = tested on: Drosophila melanogaster (Oregon-R strain); experiment: Toxicology study: larva-to-adult viability and development time
Excerpt: The purpose of this study was to test and compare the potential toxic effects of compounds 5a, 6a and 7a on the larva-to-adult viability and development time in a Drosophila melanogaster (Oregon-R) flies. These studies have a relevant predictive role with the aim to anticipate possible adverse toxicological effects that may happen during preclinical studies with animal, preferably mammals. In addition, the data provided are highly quantitative.
Drosophila melanogaster (Oregon-R) flies were obtained by the University of the Balearic Islands (Spain). […] The larvae were seeded on standard food supplemented with the appropriate dose of compounds tested. Each compound was tested at 1, 10, 100, 1000 and 2000 μg/ml dissolved in standard food.
Fly adults were transferred from the serial transfer system to bottles with fresh food for 24 h. Adults 5 days old were placed on egg collecting devices (layers) containing a mixture of agar, water, acetic acid, and ethyl alcohol, with a drop of active yeast on it. Every 2 h., the layer glasses were changed, in this way, the eggs of a glass have similar age, with a maximum difference of 2 h. among them. The glasses of the layers were kept at 25° C. for at least 22 h. in Petri dishes until larvae hatched. Fifty larvae were picked with a lancet under a stereoscopic microscope and were seeded into 10×2 cm vials with 5 ml food. Vials were supplemented with 4a, 5a and 7a at 1, 10 and 100 μg/ml. As positive control we used cupric acetate (toxic) at 350 μg/ml.
The number of adult flies which emerged from each vial was counted daily until the exhaustion of the culture. The parameters studied were the larvae-to-adult viability (V) and development time.
Viability is expressed as V=NA/NL, where NL is the input number of larvae ([…] in our case) and NA the output number of adults emerging from these NL larvae. Development time was measured in days by the formula DT=ΣNidi/ΣNi where Ni is the number of flies emerging on the day di after the larvae were placed in the medium.
The data are expressed as the mean±SEM values from 3 independent experiments involving triplicate vials at the number of flies indicated.

normoglycemic rats [3] = experiment: Oral glucose tolerance test in normoglycemic rats (Examples 27, 28); format: in vivo, Male Wistar rats; conditions: vs control group
Description: Male Wistar rats were utilized provided by Mato Grosso do Sul's Federal University's Biotherium. Until the experiments were carried out, the animals have had free access to feed and water. The room temperature was kept at 22±2° C. and the light/dark cycle was of 12 hours.
The glucose tolerance test is a reference method for the diagnosis of diabetes or glucose intolerance (5).
Distinct rat groups were orally treated, once a day, with 3-(carbohydrazyl-N′-phenylsubstituted)-1-benzosubstituted-β-carbolinic-3-carbohydrazide (compound 7a or ANIS-BZ) at doses: 0.5, 1 or 5 mg/kg or vehicle (control) for 3 days. Similarly, another rat group received metformin (reference drug used for lowering glucose serum levels) in a 300 mg/kg dose, orally, once a day for 3 days. The oral glucose tolerance test was carried out by administering of a glucose solution (2 g/kg body mass). Glycemia was determined at zero time (before oral administering) and at 60 minutes after the glucose overload.
Distinct groups of rats were treated orally, once a day, with N(-ethylamine)-1-benzosubstituted-β-carboline-3-carboxamide (compound 4a or ANIS-NH2) at doses: 0.5, 1 or 5 mg/kg, or vehicle for 3 days. Similarly, another group of rats received metformin in a 300 mg/kg dose orally for 3 days once a day. The oral glucose tolerance test was done under the administration of a glucose solution (2 g/kg body mass). Glycemia will be determined at the zero (before oral administration) time and 60 minutes after glucose overload.

female Swiss mice = experiment: Acute oral toxicology study in a mice model; format: in vivo; conditions: oral 2000 mg/kg single dose, observation for 14 days
Description: The experiments were conducted using female Swiss mice (20-30 g), housed under a 12-h light-dark cycle, with controlled humidity (60-80%), and temperature (22±1° C.). Food and water were freely available to the mice.
Female mice (n=6) were orally (2000 mg/kg) administered with a single dose of 4a, 5a, and 7a for the observation of acute signs of toxicity until 14 days. […] The observations comprised the behavior and manifestations of the toxic symptoms, and were carried out according to the Guidelines of the Organization for Economic Cooperation and Development (OECD, 2008).
All compounds were dissolved in sterile saline and were administered by oral gavage to mice based in the weight, for example 20 g received 20 μL.
The data are expressed as mean±S.E.M. of experiments. Statistical significance was determined through one-way analysis of variances (ANOVA), followed by either Newman-Keuls test. A p<0.05 was considered statistically significant. Graphs were drawn and statistical analysis was carried out using GraphPad Prism version 5.00 for Windows (GraphPad Software, San Diego, Calif., USA).

SHR hypertensive rats = experiment: Plasma cholesterol levels test in SHR hypertensive rats; format: in vivo, Male SHR; conditions: 25 days of treatment (15 mg/Kg) oral, effect more pronounced for 5a and 7a
Description: (§3) Distinct rat groups were orally treated, once a day, with 5 mg/kg of compounds 4a or 5a or 6a during the first 4 days, 10 mg/kg during the next 4 days and 15 mg/kg until the end of the treatment period or vehicle (control) for the same days. Similarly, another rat group received metformin (MET) (reference drug used for lowering glucose serum levels) in a 300 mg/kg dose, orally, from day 1 to the end of the treatment. Plasma cholesterol levels were measured in triplicate 12 hours after drug administration by the cholesterol oxidase/peroxidase method (BioSystems S.A, Barcelona, Spain). Blood samples were obtained by femoral vein punction. This method was chosen because of its noninvasive character, enabling daily measurements with the same rats throughout the entire treatment.
Male SHR were provided by Charles River Laboratories (USA). Until the experiments were carried out, the animals have had free access to feed and water. The room temperature was kept at 22±2° C. and the light/dark cycle was of 12 hours. All procedures were submitted to the Animal Experimentation Ethics Committee.
as §3, with “metformin” for “metformin (MET)”, “Blood pressure was” for “Plasma cholesterol levels were”, “4” for “12”, “administration in warmed warmed, restrained, conscious rats” for “administration”, “tail-cuff” for “cholesterol oxidase/peroxidase”, “with a computerized oscillometric system recorder (Nyprem, Cibertec).” for “(BioSystems S.A, Barcelona, Spain). Blood samples were obtained by femoral vein punction.”

[4] = fifth day, in relation to control group

SMILES: COc1ccc(-c2nc(C(=O)NCCCCN)cc3c2[nH]c2ccccc23)cc1.Cl [Compound 23e, N-(4-aminobutyl)-1-(4-methoxyphenyl)-9H-pyrido[3,4-b]indole-3-carboxamide hydrochloride]
- glucose levels in oral glucose tolerance test (normoglycemic rats [1]; [4]): reduced the glucose levels
- glucose levels in oral glucose tolerance test (normoglycemic rats [1]; first day): significant reduction in glucose levels
- glucose levels in oral glucose tolerance test (normoglycemic rats [1]; third day): significant reduction in glucose levels

SMILES: Cl.NCCNC(=O)c1cc2c([nH]c3ccccc32)c(-c2ccc(Cl)cc2)n1 [Compound 21b, N-(2-aminoethyl)-1-(4-chlorophenyl)-9H-pyrido[3,4-b]indole-3-carboxamide]
- glucose levels in oral glucose tolerance test (normoglycemic rats [1]; [4]): reduced the glucose levels

SMILES: COc1ccc(-c2nc(C(=O)NCCN(C)C)cc3c2[nH]c2ccccc23)cc1 [Compound 23b, N-(2-dimethylaminoethyl)-1-(4-methoxyphenyl)-9H-pyrido[3,4-b]indole-3-carboxamide hydrochloride]
- glucose levels in oral glucose tolerance test (normoglycemic rats [1]; [4]): reduced the glucose levels
- glucose levels in oral glucose tolerance test (normoglycemic rats [1]; third day): significant reduction in glucose levels

SMILES: CC(=O)[O-].CC(=O)[O-].[Cu+2] [Cupric acetate, cupric acetate, reference compound]
- Larva-to-adult viability (% emerged adult flies) ([2]; 350 μg/ml, positive control (toxic)): 0%

SMILES: COc1ccc(-c2nc(C(=O)N3CCOCC3)cc3c2[nH]c2ccccc23)cc1.Cl [Compound 23a, [1-(4-methoxyphenyl)-9H-pyrido[3,4-b]indol-3-yl]-4-morpholinyl-Methanone Hydrochloride]
- glucose levels in oral glucose tolerance test (normoglycemic rats [1]; first day): significant reduction in glucose levels

SMILES: COc1ccc(-c2nc(C(=O)NCCO)cc3c2[nH]c2ccccc23)cc1.Cl [Compound 23d, N-(2-hydroxyethyl)-1-(4-methoxyphenyl)-9H-pyrido[3,4-b]indole-3-carboxamide hydrochloride]
- glucose levels in oral glucose tolerance test (normoglycemic rats [1]; [4]): reduced the glucose levels

SMILES: COc1ccc(-c2nc(C(=O)N/N=C/c3ccccc3)cc3c2[nH]c2ccccc23)cc1 [Compound 7a, 3-(carbohydrazyl-N′-phenylsubstitute)-1-benzosubstitute-β-carbolinic-3-carbohydrazide]
- larvae-to-adult viability and development time ([2]; in vivo): not affected
- glycemic levels of animals that received an oral glucose overload (normoglycemic rats [3]; after 3 days, 0.5 mg/kg oral once a day): only the 1 and 5 mg/kg doses reduced statistically significant the glycemic levels
- glycemic levels of animals that received an oral glucose overload (normoglycemic rats [3]; after 3 days, 1 mg/kg oral once a day): reduced statistically significant the glycemic levels
- glycemic levels of animals that received an oral glucose overload (normoglycemic rats [3]; after 3 days, 5 mg/kg oral once a day, 5 mg/kg): reduces the glycemic levels; also recorded: reduced statistically significant the glycemic levels
- glycemic levels of animals that received an oral glucose overload (normoglycemic rats [3]; first day, 5 mg/kg oral, 60 min after glucose 2 g/kg): reduces the glycemic levels
- mortality or behavioral disorders (acute signs of toxicity) (female Swiss mice): did not produce mortality or any behavioral disorders
- plasma cholesterol levels (SHR hypertensive rats): inhibition of plasma cholesterol levels
